The structures appear in SMILES notation.

One data set has as its system mice. The following applies: mouse, in vivo; cited from earlier work. An excerpt:
Mutant SOD1^G93A female mice were divided into three groups (10 mice per group): a control group (DMSO), VBIT-4-, and VBIT-12-treated groups.

Data set [1] relates to mutant SOD1^G93A transgenic mice. The data set can be described thus: SOD1^G93A mouse ALS model, drinking water treatment. Format: in vivo. The following applies: SOD1^G93A female mice, drinking water 0.0625 mg/mL, about 20 mg/kg daily; n = 10; vs DMSO. On the procedure: (§1) Mutant SOD1^G93A transgenic mice (B6SJL-TgN-SOD1-G93A-1Gur) were obtained from The Jackson Laboratory (Bar Harbor, ME, USA) for the experiments. All experiments were approved by the Animal Care and Use Committee of Ben-Gurion University of the Negev, as required by Israeli legislation, and all efforts were taken to minimize animal suffering.
VBIT-4 and VBIT-12 were dissolved in DMSO (80 mg/mL) and then diluted in drinking water while being added in a dropwise manner into the acidic water to a final concentration of 0.0625 mg/mL. Considering an estimated daily water consumption of a 25 g mouse as 6–8 mL per mouse, the daily dose of VBIT-4 and VBIT-12 was determined. Assuming a mouse drinks about 8 mL of water daily, it consumed 20 mg/kg of the compound. Control untreated WT mice received water containing DMSO (0.36%) at the final concentration as in VBIT-4 or VBIT-12 drinking solutions. Mutant SOD1^G93A female mice were randomly divided to receive drinking water containing VBIT-4, VBIT-12, or DMSO for the control. Water consumption was verified daily.
Mean age of disease onset, defined as the time when mice reached peak body weight (A, B), and disease end stage, defined as the time when the mouse could not right itself within 20 s when placed on its side (C, D) of mutant SOD1G93A mice without (control, n = 10, blue) and with treatment of VBIT‐4 (n = 10, red) or VBIT‐12 (n = 10, green) through drinking water. The results are the means ± SD. (E–G) Mean (± SD) duration of early disease (from onset to 10% weight loss) (E), duration of late disease (from 10% weight loss to end stage) (F), and disease progression (from onset to end stage) (G). At each time point, the p‐ value was determined by a Student’s t‐test. Error bars denote SDs. Plot of averaged forelimb (H) and hindlimb (I) grip strength for SOD1G93A female mice untreated (n = 10, blue), treated with VBIT‐4 (n = 10, red), or treated with VBIT‐12 (n = 10, green) through the drinking water. SOD1G93A mice were monitored up to the end stage. The untreated SOD1G93A mice received water with the same concentration of DMSO as controls. At each time point, the p‐value was determined by a Student’s t‐test. Error bars denote SDs.
Table S1. Antibodies used in the study

The test system of data set [2] is release of mitochondrial DNA (mtDNA); cGAS/STING. More on the design: method as in PMID 34217890. The following applies: ref [45]; cited from earlier work.
Data set [3] relates to VDAC1. Also noted: method as in PMID 27738100, PMID 30293774, PMID 31857488, PMID 34217890. To be noted: ref [49], [43], [44], [45]; cited from earlier work.
In data set [4] the test system is VDAC1. The data set can be described thus: VDAC1 oligomerization in spinal cord mitochondria (EGS crosslinking). Format: biochemical. The following applies: spinal cord mitochondria 1 mg/mL from SOD1^G93A mice, VBIT-4 20 μM, 10 min pre-incubation, PBS pH 8.3, 20 min, 30 °C, immunoblot, dimer quantification, n = 3. On the procedure: (§2) Figure 3 VDAC1 oligomerization is increased in mutant SOD1^G93A spinal cord mitochondria. […] A cell viability analysis was performed using the CellTiter 96 AQueous One-Solution cell proliferation assay using a plate reader at 490 nm. (B,C) Spinal cord mitochondria (1 mg/mL) from non-transgenic, SOD1^WT or SOD1^G93A rats were incubated for 10 min at 30 °C in 10 mM Tricine, pH 8.2, with the indicated concentration of the crosslinking reagent EGS (B) or DSP (C). Sample buffer for electrophoresis containing 2-mercaptoethanol, except for DSP (S-S-containing reagent), was added, and the samples were subjected to SDS/PAGE (10% gel) and immunoblot analysis using anti-VDAC1 antibodies. (D,E) Spinal cord mitochondria (1 mg/mL, n = 3) from non-transgenic or SOD1^G93A mice were incubated for 20 min at 30 °C in PBS, pH 8.3, with the indicated concentration of EGS, and subjected to SDS-PAGE (10%), immunoblotting (D), and quantitative analysis (E). (F,G) Spinal cord mitochondria isolated from SOD1^G93A mice were pre-incubated with VBIT-4 (10 min, 20 μM) and subjected to cross linking as described in D. Samples were subjected to SDS/PAGE 4–15% gradient gel and immunoblotting using anti-VDAC1 antibodies (F) and to dimer quantitative analysis (G). VDAC1 dimer levels were quantified using ImageJ software. The positions of VDAC1 monomers, dimers, trimers, tetramers, and higher oligomers are indicated. […]

Another data set has as its system VDAC1 oligomerization. To be noted: ref [49]; cited from earlier work.
In data set [5] the test system is iPSC-derived motor neurons from ALS patients carrying mutations in TDP-43. Also noted: method as in PMID 33031745. The following applies: TDP-43 mutations, ref [58]; cited from earlier work.
Data set [6] deals with motor-neuron-like NSC-34 cells expressing human SOD1^G93A. The data set can be described thus: Viability of NSC-34 cells expressing mutant SOD1^G93A. Type of data set: cell-based. The following applies: NSC-34, human SOD1^G93A; VBIT-12 15 µM, 12 h, 24 h post-transfection; 490 nm; n = 3, means ± SEM. On the procedure:
as §2

For data set [7], the system named is mutant SOD1^G93A transgenic mice. The data set can be described thus: SOD1^G93A mouse ALS model, IP treatment. Format: in vivo. On the procedure:
Mean age of disease onset, defined as the time when mice reached peak body weight as a function of time (A,B), and disease end stage, defined as the time when the mouse could not right itself within 20 s when placed on its side (C,D) considering mutant SOD1^G93A mice IP-injected every second day with 200 µL DMSO 4% (control, n = 10, blue) or with VBIT-12 (26 mg/kg) (n = 10, green). The results are the means ± SD. (E–G) The means ± SD for the duration of early disease (from onset to 10% weight loss) (E), duration of late disease (from 10% weight loss to end stage) (F), and disease progression (from onset to end stage) (G) are presented. Plots of the averaged forelimb (H) and hindlimb (I) grip strength for SOD1^G93A female mice untreated (n = 10, blue) or treated with VBIT-12 (n = 10, green). SOD1^G93A mice were monitored up to the end stage. At each time point, the p-value was determined by Student’s t-test with SD. * p < 0.05; ns, non-significant.
as §1
For intraperitoneal (IP) injection, VBIT-12 (80 mg/mL) in DMSO was diluted with saline, pH 7.0, to a final concentration of 3.25 mg/mL. Mice received 200 µL by IP injection resulting in a final VBIT-12 concentration of ~26 mg/Kg. VBIT-12 was IP injected every second day starting from day 60 for 12 weeks, and then the VBIT-12 final concentration was reduced to ~13 mg/Kg. The control group was IP injected with around 200 µL of DMSO (4%).

The mark [8] stands for this setting: SOD1^G93A female mice, IP 26 mg/kg every other day from day 60, then ~13 mg/Kg, n = 10, during disease progression, Student's t-test.
[9] abbreviates: SOD1^G93A mice, IP 26 mg/kg every other day from day 60 for 12 weeks, then ~13 mg/Kg, n = 10, vs DMSO 4%.

In the case of `O=C(CC(CO)N1CCN(c2ccc(OC(F)(F)F)cc2)CC1)Nc1ccc(Cl)cc1` (stereo not drawn) [VBIT-4], in the data set on mice, the tolerability entry was “well tolerated in mice”. In data set [1], the “disease onset (peak body weight)” value is “no effect on disease onset” and the “survival (disease end stage)” value is “no effect on disease onset (Figure S3A,B) or survival”. In addition, in data set [2], the “inhibition of mtDNA release and inflammation” value is “inhibit the release of mitochondrial DNA (mtDNA) via preventing VDAC1 oligomerization and inhibiting inflammation”. The “inhibition of VDAC1 conductance” value with VDAC1 [3] is listed as “inhibit VDAC1 conductance”. The “inhibition of VDAC1 oligomerization” value in the data set on VDAC1 [4] is recorded as “inhibited the oligomerization of VDAC1”. Further, in the data set with VDAC1 oligomerization, the “effect on cells under physiological conditions” value is reported as “no effect on cells under physiological conditions”; the “prevention of VDAC1 oligomerization and apoptotic cell death” value was “prevent both VDAC1 oligomerization and apoptotic cell death”; the “prevention of cytosolic Ca^2+ elevation and ROS production” value is “prevent VDAC1 oligomerization, and, thereby, apoptosis and apoptosis-associated processes such as cytosolic Ca^2+ elevation and ROS production”. Besides, the “prevention of cytosolic accumulation of mtDNA and inflammation” value in data set [5] is “prevented the cytosolic accumulation of mtDNA and inflammation”.

As for `O=C(O)CNC(=O)C1(Nc2ccccc2)CCN(Cc2cccc3ccccc23)CC1` [VBIT-12], in [1], the “disease onset (peak body weight)” value is “no effect on disease onset”; the “muscle endurance, hindlimb grip strength” value is “some benefit on muscle endurance as measured by grip strength in the hindlimbs”; the “survival (disease end stage)” value was “no effect on disease onset (Figure S3A,B) or survival”. The “prevention of mutant SOD1 cell toxicity (cell survival)” value in data set [6] is listed as “partially prevented the mutant SOD1 cell toxicity effect”. Moreover, in the data set on VDAC1 [3], the “inhibition of VDAC1 conductance” value was “inhibit VDAC1 conductance”. For the same compound, in the data set on VDAC1 oligomerization, the “effect on cells under physiological conditions” value is given as “no effect on cells under physiological conditions”; the “prevention of VDAC1 oligomerization and apoptotic cell death” value is “prevent both VDAC1 oligomerization and apoptotic cell death”; the “prevention of cytosolic Ca^2+ elevation and ROS production” value was “prevent VDAC1 oligomerization, and, thereby, apoptosis and apoptosis-associated processes such as cytosolic Ca^2+ elevation and ROS production”. In data set [7] (setting [8]), the “forelimb grip (pulling) strength” value is reported as “significantly greater pulling strength” and the “hindlimb grip (pulling) strength” value is reported as “significantly greater pulling strength”. For the same compound, the “maintenance of limb muscle strength over time” value in [7] (SOD1^G93A mice, IP 26 mg/kg every other day from day 60, then ~13 mg/Kg, n = 10, vs DMSO 4%) was “maintained their limb muscle strength for a significantly more extended period of time”. In [7] (setting [9]), the disease onset entry was “positive tendency in delaying disease onset (Figure 5A,B) and survival of SOD1^G93A mice, although this was not statistically significant”; the survival entry is “positive tendency in delaying disease onset (Figure 5A,B) and survival of SOD1^G93A mice, although this was not statistically significant”. In addition, the “muscle function and survival (summary)” value in [7] (SOD1^G93A transgenic mice, "daily treatment" as worded in the discussion) is listed as “significantly improved muscle function, without extending survival”.

These data come from publication PMC9456491, “Targeting the Mitochondrial Protein VDAC1 as a Potential Therapeutic Strategy in ALS” (International Journal of Molecular Sciences, 2022).
